We go through five compounds from patent publication US20240156901A1, “GAL3BP POLYPEPTIDE COMPOSITIONS AND METHODS FOR TREATMENT OF CANCER AND DETERMINING TREATMENT RESPONSIVENESS” (UNIVERSITY OF PITTSBURGH-OF THE COMMONWEALTH SYSTEM OF …, priority 2021, published 2024).

Assay [1] has as its system bone-marrow derived macrophages (BMDMs). Description: Scratch-wound healing assay, BMDM migration. In kind it is cell-based, mouse. Conditions: rCHI3L1 0.6 μg/mL; 6 hours. The method, then: (§1) BMDMs were isolated from male and female C57BL/6 mice as previously described (Ying W et al., 2013). Briefly, femur bones were isolated from mice, and IMDM (ATCC) supplemented with 10% FBS and P/S was used to flush the bone marrow into a petri dish. After 4-6-hour incubation, the floating cells were collected and resuspended in the medium with 20 ng/mL M-CSF (PrproTech). On day 6, the fully differentiated cells were designated as an M0 state. To induce BMDM polarization toward an M1 state, 100 ng/mL LPS (Invitrogen) and 50 ng/mL IFNγ (PrproTech) were added to the M0 cells for 24 hours. To induce BMDM polarization toward an M2 state, 20 ng/mL IL-4 (PrproTech) was added to the M0 cells for 72 hours.
(§2) BMDM were polarized to the indicated status (M0, M1, or M2) and seeded in 12-well plates at 80-90% confluency. The cells were switched to the medium without FBS for 6 hours of starvation. Scratches were made using pipettor tips and fresh IMDM with indicated recombinant proteins and/or peptides were added. Images of the scratches were captured at indicated times. For the SIM-A9 scratch-wound healing assay, 12-well plates were coated with 10 μg/mL fibronectin (Sigma-Aldrich) at 37° C. overnight before seeding cells.

For assay [2] the test system is unchanged. Description: Transwell migration assay, BMDM migration. Type of assay: cell-based, mouse. The method, then: as §1
(§3) Polarized BMDMs were starved by removing FBS for 6 hours. Cells were collected and 2×10^5 cells in 200 μL of IMDM were added into each transwell insert (Millipore, Cat #MCMP24H48). 700 μL of IMDM containing 2% FBS and the indicated recombinant proteins was added to the bottom of the plates. After 14-hour incubation, transwell inserts were stained with HEMA 3 Stain Set (Fisher Scientific). Insert membranes were separated and mounted on glass slides with CYTOSEAL XYL (ThermoFisher) and images were taken by an inverted microscope (Leica DM 2500). For the SIM-A9 cells, the inserts were coated with 10 μg/mL fibronectin overnight in advance of seeding cells.

Assay [3] has as its system mouse microglial cell line (SIM-A9). Description: Scratch-wound healing assay, microglial cell migration. Conditions: rCHI3L1 0.6 μg/mL, 6 hours. In kind it is cell-based. The method, then: as §2
Assay [4] relates to microglial cell line (SIM-A9). Description: Transwell migration assay, microglial cell migration. In kind it is cell-based, mouse. The protocol: as §3
A further assay has as its target Gal3-Gal3BP interaction (Homo sapiens, UniProt P17931). Conditions: TS603-V5-CHI3L1 cells; 10 μM for 24 hours. The protocol: (§4) TS603 cells overexpressing CHI3L1 with V5 tag (TS603 CHI3L1_V5_OE) or THP-1 cells treated with the peptides were collected and protein-protein interaction was crosslinked with 2 mM Dithiobis (succinimidyl propionate, DSP). Membrane proteins were extracted with the Membrane Protein Extraction Kit (ThermoFisher, Cat #89842) and ˜500 μg of protein was used for Co-IP assay by the Co-Immunoprecipitation Kit (ThermoFisher, Cat #26149). For mass spectrometry, 10 μg of each of the TS603 CHI3L1_V5_OE Co-IP samples were separated in a 12% SDS-PAGE gel and analyzed by MS at the University of Pittsburgh Biomedical MS Center.
(§5) To confirm Co-IP experiments in TS603 cells by immunoblotting, the magnetic beads of protein G (Bio-Rad, Cat #161-4023) were used following the manufacturer's protocol. […] For in vivo THP-1 cell or in vitro recombinant protein Co-IP experiments, additional following antibodies were used: Mouse anti-CHI3L1 (Santa Cruz Biotechnology, Cat #SC-393590), Rat anti-Galectin-3 (Santa Cruz Biotechnology, Cat #SC-23938), anti-Galectin-3BP (Santa Cruz Biotechnology, Cat #SC-374541), Rabbit anti-CHI3L1 (Cell Signaling Technology, Cat #47066), and Rat IgG (BioXCell, Cat #BE0090).

For a further assay, the target named is Gal3-CHI3L1 interaction (Homo sapiens, UniProt P17931). Conditions: TS603-V5-CHI3L1 cells; 10 μM for 24 hours. The method, then: as §4, §5
The subject of the next assay is CHI3L1 secretion. Kind of assay: ELISA of secreted CHI3L1 in conditioned medium of GBM neurosphere lines. Type of assay: cell-based, human. Conditions: two GBM neurosphere lines. The protocol:
Secreted CHI3L1 protein in the cell culture supernatant was measured by using the Quantikine Human CHI3L1 Immunoassay (R&D Systems, Cat #DC3L10). CHI3L1 content in the conditioned media was quantified per million cells and no CHI3L1 was detected in DMEM or NSC medium supplemented with EGF and bFGF.

Assay [5] has as its system GL261-CHI3L1 orthotopic tumors. Description: Peptide treatment of GL261-CHI3L1 orthotopic tumors (MRI, survival). Particulars: C57BL/6 mice bearing GL261-CHI3L1 orthotopic tumors; 20 μM peptide into brain tumor via guide screw.
Experimental: Male and female ICR SCID and C57BL/6 mice (4-6 weeks of age) were purchased from Taconic Biosciences and The Jackson Laboratory, respectively. The intracranial xenograft tumor models were established as previously described (Hu B et al., 2016). Cells in 5 μL DPBS were injected at the following numbers: TS543 vector control or CHI3L1 overexpression (OE), 1×10^4 cells; QPP7 scrambled control or CHI3L1 knockdown (KD), 1×10^5 cells; and GL261 vector control or CHI3L1 OE, 1×10^5 cells. […] For mice treated with peptides, 5 uL of 20 uM SCP or GMP was delivered into the mouse brain every 4 days with a total of seven times.
MRI and bioluminescent imaging of mice were performed at Rangos Research Center Animal Imaging Core. The tumor size of mice detected by MRI was analyzed with ITK-SNAP.
For intracranial xenograft tumor models treated with peptides, mice were implanted with a guide screw prior to intracranial injection. To install the screw, mice were anesthetized by intraperitoneal (IP) injection with ketamine/xylazine solution (1.75 mL of 100 mg/mL ketamine and 0.25 mL of 100 mg/mL xylazine in 8 mL sterile water) at a dosage of 100 μL/20 g body weight. The screw was covered by sealing the skin, and mice were allowed to recover for one week before intracranial implantation. GL261 cells overexpressing CHI3L1 (1×10^5) were injected in 5 μL of DPBS containing 20 μM of either scrambled control peptide (SCP) or Gal3BP mimetic peptide (GMP). SCP (20 μM) or GMP (20 μM) was subsequently given once every 3 days with a total of seven times by intracranial injection via the guide screw.
All mice received general inhalation anesthesia with Isoflurane for in vivo brain imaging. […] Depth of anesthesia was monitored by toe reflex (extension of limbs, spine positioning) and respiration rate. […] Respiration was monitored using a pneumatic sensor placed between the animal bed and the mouse's abdomen, rectal temperature was measured with a fiberoptic sensor, and core temperature was maintained at 36.8±0.2° C. with a feedback-controlled warm air source (SA Instruments). […]
The subject of the next assay is GL261-CHI3L1 glioma. Description: Flow cytometry of immune cell populations in GL261-CHI3L1 glioma after peptide treatment. In kind it is in vivo, mouse. Particulars: tumors of C57BL/6 mice bearing GL261-CHI3L1. The protocol: Mice with neurological deficits or moribund appearance were sacrificed. Tumors were separated and homogenized for 15 min at 37° C. in Collagenase IV Cocktail (3.2 mg/mL collagenase type IV, 2 mg/mL soybean trypsin inhibitor, and 1.0 mg/mL deoxyribonuclease I; Worthington Biochemical). Red blood cells were lysed using ACK lysing buffer (Gibco). Cell suspensions were filtered through 70-μm strainers, centrifuged, and resuspended in cold FACS buffer (DPBS with 1% BSA) for further analysis.
About 3×10^6 cells were used for each staining panel. Cells were incubated with 1.0 μg of TruStain fcX (BioLegend) for 10 min on ice to block Fc receptors, followed by staining with the combination of indicated antibodies. After staining, cells were washed with FACS buffer three times and incubated with Fixation Buffer (BioLegend) at RT for 20 min. Cells were washed with FACS buffer, resuspended in Cyto-Last Buffer (BioLegend), and analyzed by either a BD LSRFortessa or BD FACSAria II SORP. For CyTOF, samples were prepared as described above for flow cytometry. Three pairs of samples (scrambled shRNA vs Chi3l1 KD) with similar tumor sizes were chosen and the staining procedure was followed as previously described (Mitsialis V, et al., 2020). The samples were analyzed on a Helios2 CyTOF system (Fluidigm) at the Longwood Medical Area CyTOF Core. Additional information about flow cytometry antibodies is provided in the Supplementary Material and Methods section.

Sequence of Gal3-CHI3L1 interaction (P17931 2-250 limits assumed): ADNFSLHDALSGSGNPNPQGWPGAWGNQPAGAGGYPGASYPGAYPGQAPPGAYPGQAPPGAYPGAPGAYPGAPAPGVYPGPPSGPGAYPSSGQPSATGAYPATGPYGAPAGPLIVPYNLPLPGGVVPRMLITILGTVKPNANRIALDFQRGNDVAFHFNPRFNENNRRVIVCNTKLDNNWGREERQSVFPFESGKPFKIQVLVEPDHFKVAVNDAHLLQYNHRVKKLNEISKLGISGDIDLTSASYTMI
Sequence of Gal3-CHI3L1 interaction (P36222 22-383 partner): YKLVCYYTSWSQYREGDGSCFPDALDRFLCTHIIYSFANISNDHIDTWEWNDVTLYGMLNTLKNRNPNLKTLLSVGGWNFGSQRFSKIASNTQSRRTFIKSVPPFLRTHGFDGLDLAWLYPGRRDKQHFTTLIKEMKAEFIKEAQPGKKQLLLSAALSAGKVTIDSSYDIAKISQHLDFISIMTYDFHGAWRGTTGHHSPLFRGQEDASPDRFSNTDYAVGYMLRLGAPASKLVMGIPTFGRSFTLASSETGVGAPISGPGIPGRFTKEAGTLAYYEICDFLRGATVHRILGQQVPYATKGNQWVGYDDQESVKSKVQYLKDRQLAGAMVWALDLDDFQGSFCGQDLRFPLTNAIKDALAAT
Sequence of Gal3-Gal3BP interaction (P17931 2-250 limits assumed): as the sequence (P17931 2-250 limits assumed) above
Sequence of Gal3-Gal3BP interaction (P36222 22-383 partner): as the sequence (P36222 22-383 partner) above

Turning to rCHI3L1: recombinant CHI3L1 protein, the “M0 and M1 BMDM migration” value in assay [1] was “not M0 and M1 BMDMs”. Further, the “M2 BMDM migration” value in assay [1] is “promoted M2 BMDM migration”; in assay [2], “promoted cell migration in M2 BMDMs”. The microglial cell migration result in [3] is listed as “did not increase cell migration”; in [4], “not in M0 BMDMs, M1 BMDMs, or microglial cells”.

Regarding `OC[C@H]1O[C@@H](S[C@@H]2O[C@H](CO)[C@H](O)[C@H](n3cc(-c4cccc(F)c4)nn3)[C@H]2O)[C@H](O)[C@@H](n2cc(-c3cccc(F)c3)nn2)[C@H]1O` [TD139], the “Gal3-Gal3BP interaction (Co-IP)” value on Gal3-Gal3BP interaction is “completely disrupted”. Besides, the “Gal3-CHI3L1 interaction (Co-IP)” value at Gal3-CHI3L1 interaction is listed as “not Gal3-CHI3L1 interactions”.

With `Nc1cc(C(F)(F)F)c(-c2cc(N3CCOCC3)nc(N3CCOCC3)n2)cn1` [NVP-BKM120], in the assay with CHI3L1 secretion, the “CHI3L1 secretion in conditioned medium” value is “decreased CHI3L1 secretion in a dose- and time-dependent manner”.

“L1RTRLEETLSSDTSH15 (LRTRLEETLSSDTSH) [SCP, scrambled control peptide, reference compound]”: the median survival in assay [5] amounted to 29 days. In addition, in the assay with GL261-CHI3L1 glioma, the “CD4+ cell population” value is on record as 39.8±4.0%. Besides, in the assay on GL261-CHI3L1 glioma (mean±SEM, P=0.0536), the “M2-like TAMs” value worked out at 52.7±3.9%. Also, the “M1-like TAMs” value with GL261-CHI3L1 glioma (mean±SEM, P=0.0719) is reported as 38.2±6.7%.

In the case of `Cn1c(=O)n(-c2ccc(C(C)(C)C#N)cc2)c2c3cc(-c4cnc5ccccc5c4)ccc3ncc21` [NVP-BEZ235], in the assay on CHI3L1 secretion, the “CHI3L1 secretion in conditioned medium” value was “decreased CHI3L1 secretion in a dose- and time-dependent manner”.
